Data set [1] has as its target Luciferin 4-monooxygenase (Photinus pyralis, UniProt P08659). Description: Counter Screen for Luciferase-based Assay Positives. [Related pubchem assays: 620, 618, 411 ]. On the technique in general: Counterscreens check selectivity or assay interference.
The subject of the next data set is HT-1080. As to the kind of experiment: cytotoxicity in HT1080 fibrosarcoma cells, cell-based, fluorescence readout (AID 620). It counts as functional. The note with it: Homo sapiens.
For data set [2], the target named is T1, Lytic switch protein BZLF1 (Epstein-Barr virus (strain B95-8) (HHV-4) (Human herpesvirus 4), UniProt P03206).
T1 sequence (P03206 whole entry): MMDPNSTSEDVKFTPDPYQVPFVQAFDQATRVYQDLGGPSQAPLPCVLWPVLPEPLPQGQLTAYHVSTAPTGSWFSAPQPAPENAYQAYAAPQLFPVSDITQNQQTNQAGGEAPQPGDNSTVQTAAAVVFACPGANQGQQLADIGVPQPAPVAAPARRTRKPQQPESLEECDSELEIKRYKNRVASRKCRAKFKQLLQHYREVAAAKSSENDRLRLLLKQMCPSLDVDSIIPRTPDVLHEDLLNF
Description: EBV ZTA inhibitors, dose response, counter-screen for EBNA-1 inhibitor project, biochemical, fluorescence polarization, Epstein-Barr virus, 1536-well (AID 2377).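 Note: fluorescence polarization of Cy5-labelled ZRE DNA probe bound by purified Zta.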 Details: species or system human gammaherpesvirus 4.

The target of data set [3] is T2, Epstein-Barr nuclear antigen 1 (Epstein-Barr virus (strain B95-8) (HHV-4) (Human herpesvirus 4), UniProt P03211).
T2 sequence (P03211 whole entry): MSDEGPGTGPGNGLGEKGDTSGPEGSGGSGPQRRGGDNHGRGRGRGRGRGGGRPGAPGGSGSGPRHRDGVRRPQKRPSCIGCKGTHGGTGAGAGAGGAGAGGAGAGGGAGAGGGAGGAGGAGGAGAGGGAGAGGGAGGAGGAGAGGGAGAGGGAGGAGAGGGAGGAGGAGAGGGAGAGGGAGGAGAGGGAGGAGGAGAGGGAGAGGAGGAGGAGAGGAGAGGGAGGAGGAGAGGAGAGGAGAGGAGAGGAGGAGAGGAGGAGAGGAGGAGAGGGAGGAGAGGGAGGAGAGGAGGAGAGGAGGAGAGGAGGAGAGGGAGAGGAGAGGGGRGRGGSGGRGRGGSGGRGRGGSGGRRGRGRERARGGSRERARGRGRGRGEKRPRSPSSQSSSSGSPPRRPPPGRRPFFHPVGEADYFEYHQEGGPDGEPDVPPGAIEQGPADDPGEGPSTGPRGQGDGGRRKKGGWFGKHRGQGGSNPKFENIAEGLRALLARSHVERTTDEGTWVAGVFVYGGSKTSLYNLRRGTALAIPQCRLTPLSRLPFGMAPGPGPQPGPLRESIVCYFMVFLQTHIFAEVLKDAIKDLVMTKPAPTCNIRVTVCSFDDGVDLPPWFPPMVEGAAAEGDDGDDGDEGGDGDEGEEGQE
As to the kind of experiment: EBNA-1 inhibitors, dose response, biochemical, fluorescence polarization, 1536-well (AID 2381).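 Note: fluorescence polarization of a Cy5 DNA probe bound by EBNA-1 protein.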 Set-up: species or system human gammaherpesvirus 4.

A short description of data set [4]: THP-1 cell cytotoxicity, dose response, cytotoxicity control for Vif-APOBEC3G degradation inhibitor project, THP-1 cells (AID 1117359). The class given is functional. The settings on record: Human immunodeficiency virus 1, THP-1.
The next data set deals with Bcl-2-like protein 1 (Homo sapiens, UniProt Q07817). Description: BCL-XL inhibitors, dose response, selectivity assay for MCL1 inhibitor project, biochemical, fluorescence polarization, 1536-well (AID 2218). Background: In fluorescence polarisation assays a small probe gives low polarisation when free and higher when bound to something large.
Bcl-2-like protein 1, sequence (Q07817 whole entry): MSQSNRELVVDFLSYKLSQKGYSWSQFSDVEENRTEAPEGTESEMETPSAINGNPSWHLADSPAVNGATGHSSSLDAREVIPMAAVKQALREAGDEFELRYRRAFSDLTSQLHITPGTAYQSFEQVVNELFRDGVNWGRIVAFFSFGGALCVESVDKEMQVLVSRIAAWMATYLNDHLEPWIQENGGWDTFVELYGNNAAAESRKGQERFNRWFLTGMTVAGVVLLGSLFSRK
Data set [5] deals with Induced myeloid leukemia cell differentiation protein Mcl-1 (Homo sapiens, UniProt Q07820). Description: MCL1-BIM BH3 interaction inhibitors, dose response, biochemical, fluorescence polarization, BIM-BH3 peptide, 1536-well (AID 2217).
Induced myeloid leukemia cell differentiation protein Mcl-1, sequence (Q07820 whole entry): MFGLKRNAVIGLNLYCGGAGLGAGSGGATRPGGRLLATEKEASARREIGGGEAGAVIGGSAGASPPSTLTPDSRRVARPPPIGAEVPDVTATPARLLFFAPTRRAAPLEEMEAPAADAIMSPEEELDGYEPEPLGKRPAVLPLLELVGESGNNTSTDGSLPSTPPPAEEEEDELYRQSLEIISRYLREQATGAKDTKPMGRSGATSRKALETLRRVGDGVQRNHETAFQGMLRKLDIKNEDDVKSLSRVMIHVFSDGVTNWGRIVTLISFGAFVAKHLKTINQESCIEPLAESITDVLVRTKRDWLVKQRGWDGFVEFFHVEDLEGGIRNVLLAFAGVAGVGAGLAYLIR
The nature of data set [6]: A Cell Based Secondary Assay To Explore Cytotoxicity of Compounds that Sensitize Mycobacterium Tuberculosis to Beta-Lactam Antibiotics. It counts as functional.
In data set [7] the target is Polyadenylate-binding protein 1 (Homo sapiens, UniProt P11940). Description: PABP poly(A) RNA binding inhibitors, primary screen, biochemical, fluorescence polarization, uHTS (AID 2014).
Polyadenylate-binding protein 1, sequence (P11940 whole entry): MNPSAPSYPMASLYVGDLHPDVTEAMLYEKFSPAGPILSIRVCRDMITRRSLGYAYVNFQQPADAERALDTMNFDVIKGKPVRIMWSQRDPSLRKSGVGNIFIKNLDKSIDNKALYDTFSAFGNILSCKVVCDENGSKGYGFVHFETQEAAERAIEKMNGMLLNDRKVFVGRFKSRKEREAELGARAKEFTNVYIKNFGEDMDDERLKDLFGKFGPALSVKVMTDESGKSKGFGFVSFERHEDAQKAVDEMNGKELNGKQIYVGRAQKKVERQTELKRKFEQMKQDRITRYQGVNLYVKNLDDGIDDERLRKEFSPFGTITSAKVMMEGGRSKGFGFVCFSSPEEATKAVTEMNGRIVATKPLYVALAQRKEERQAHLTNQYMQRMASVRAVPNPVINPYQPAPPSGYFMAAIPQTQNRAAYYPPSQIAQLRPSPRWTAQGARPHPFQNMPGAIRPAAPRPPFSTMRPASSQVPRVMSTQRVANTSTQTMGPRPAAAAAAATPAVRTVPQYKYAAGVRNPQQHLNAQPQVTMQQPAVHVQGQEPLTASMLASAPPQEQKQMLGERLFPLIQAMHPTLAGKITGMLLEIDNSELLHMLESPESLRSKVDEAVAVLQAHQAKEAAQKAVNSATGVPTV
Data set [8] has as its target T3, Zinc finger protein mex-5 (Caenorhabditis elegans, UniProt Q9XUB2).
T3 sequence (Q9XUB2 whole entry): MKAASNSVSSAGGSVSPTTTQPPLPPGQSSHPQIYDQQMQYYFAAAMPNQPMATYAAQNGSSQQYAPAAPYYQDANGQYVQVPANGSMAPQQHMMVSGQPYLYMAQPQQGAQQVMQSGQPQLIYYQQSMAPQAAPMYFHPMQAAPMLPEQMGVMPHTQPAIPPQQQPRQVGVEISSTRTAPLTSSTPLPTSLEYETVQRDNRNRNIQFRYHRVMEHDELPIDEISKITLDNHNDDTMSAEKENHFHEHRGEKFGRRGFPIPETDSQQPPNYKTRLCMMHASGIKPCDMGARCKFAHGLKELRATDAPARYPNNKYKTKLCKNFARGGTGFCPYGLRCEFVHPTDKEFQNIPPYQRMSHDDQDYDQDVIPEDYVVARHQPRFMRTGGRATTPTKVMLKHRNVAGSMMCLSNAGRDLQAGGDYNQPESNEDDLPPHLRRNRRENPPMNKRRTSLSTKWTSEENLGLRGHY
As to the kind of experiment: MEX-5/TCR-2 RNA interaction inhibitors, dose response, biochemical, C. elegans, fluorescence polarization (AID 1960).

In data set [9] the target is Eukaryotic translation initiation factor 4H (Homo sapiens, UniProt Q15056). As to the kind of experiment: human eIF4H binding inhibitors, primary screen, translation initiation inhibitor project, biochemical, uHTS, fluorescence polarization (AID 2012).
Data set [10] has as its target T4, RNA-binding protein pos-1 (Caenorhabditis elegans, UniProt G5EF15).
T4 sequence (G5EF15 whole entry): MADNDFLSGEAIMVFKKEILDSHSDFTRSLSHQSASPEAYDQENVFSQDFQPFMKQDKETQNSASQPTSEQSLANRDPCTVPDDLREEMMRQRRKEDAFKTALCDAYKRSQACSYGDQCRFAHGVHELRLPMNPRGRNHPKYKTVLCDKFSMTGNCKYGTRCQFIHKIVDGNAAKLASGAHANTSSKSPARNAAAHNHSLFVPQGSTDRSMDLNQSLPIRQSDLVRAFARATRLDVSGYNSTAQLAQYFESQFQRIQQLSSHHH
As to the kind of experiment: inhibitors of POS-1/mex-3 RNA binding, dose response, biochemical, fluorescence polarization (AID 1964).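 Note: purified POS-1 fused to maltose binding protein made in E. coli; potency of compounds blocking POS-1 binding to fluorescent RNA.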

Data set [11] has as its target T5, Replicative DNA helicase DnaB (Mycobacterium tuberculosis, UniProt P9WMR3).
T5 sequence (P9WMR3 whole entry): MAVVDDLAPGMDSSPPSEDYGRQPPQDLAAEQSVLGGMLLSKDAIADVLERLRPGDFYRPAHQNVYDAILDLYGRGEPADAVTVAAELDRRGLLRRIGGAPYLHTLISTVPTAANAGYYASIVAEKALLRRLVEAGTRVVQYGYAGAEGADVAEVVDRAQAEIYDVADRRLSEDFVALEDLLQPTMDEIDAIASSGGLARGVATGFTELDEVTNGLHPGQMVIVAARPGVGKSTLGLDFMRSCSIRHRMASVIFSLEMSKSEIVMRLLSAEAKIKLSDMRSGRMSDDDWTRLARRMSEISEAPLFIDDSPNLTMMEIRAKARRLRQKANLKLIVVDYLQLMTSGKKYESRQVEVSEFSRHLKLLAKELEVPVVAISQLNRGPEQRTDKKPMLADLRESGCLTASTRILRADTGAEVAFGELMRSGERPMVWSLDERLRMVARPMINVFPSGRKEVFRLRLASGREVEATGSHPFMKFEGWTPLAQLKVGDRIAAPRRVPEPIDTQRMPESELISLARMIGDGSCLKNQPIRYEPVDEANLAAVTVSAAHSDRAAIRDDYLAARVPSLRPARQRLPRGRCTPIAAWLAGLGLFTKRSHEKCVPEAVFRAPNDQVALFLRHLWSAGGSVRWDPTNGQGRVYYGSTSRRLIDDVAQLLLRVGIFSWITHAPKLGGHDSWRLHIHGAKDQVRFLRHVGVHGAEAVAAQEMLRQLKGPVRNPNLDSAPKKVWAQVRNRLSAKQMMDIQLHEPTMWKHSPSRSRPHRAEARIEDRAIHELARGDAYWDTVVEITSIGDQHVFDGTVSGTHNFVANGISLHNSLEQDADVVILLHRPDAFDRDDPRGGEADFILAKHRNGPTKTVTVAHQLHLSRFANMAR
Description: DnaB intein splicing inhibitors, dose response, biochemical, cell-free fluorescence (AID 449749). The class given is functional.

A further data set concerns the target T6, Protein RecA (Mycobacterium tuberculosis, UniProt P9WHJ3).
T6 sequence (P9WHJ3 whole entry): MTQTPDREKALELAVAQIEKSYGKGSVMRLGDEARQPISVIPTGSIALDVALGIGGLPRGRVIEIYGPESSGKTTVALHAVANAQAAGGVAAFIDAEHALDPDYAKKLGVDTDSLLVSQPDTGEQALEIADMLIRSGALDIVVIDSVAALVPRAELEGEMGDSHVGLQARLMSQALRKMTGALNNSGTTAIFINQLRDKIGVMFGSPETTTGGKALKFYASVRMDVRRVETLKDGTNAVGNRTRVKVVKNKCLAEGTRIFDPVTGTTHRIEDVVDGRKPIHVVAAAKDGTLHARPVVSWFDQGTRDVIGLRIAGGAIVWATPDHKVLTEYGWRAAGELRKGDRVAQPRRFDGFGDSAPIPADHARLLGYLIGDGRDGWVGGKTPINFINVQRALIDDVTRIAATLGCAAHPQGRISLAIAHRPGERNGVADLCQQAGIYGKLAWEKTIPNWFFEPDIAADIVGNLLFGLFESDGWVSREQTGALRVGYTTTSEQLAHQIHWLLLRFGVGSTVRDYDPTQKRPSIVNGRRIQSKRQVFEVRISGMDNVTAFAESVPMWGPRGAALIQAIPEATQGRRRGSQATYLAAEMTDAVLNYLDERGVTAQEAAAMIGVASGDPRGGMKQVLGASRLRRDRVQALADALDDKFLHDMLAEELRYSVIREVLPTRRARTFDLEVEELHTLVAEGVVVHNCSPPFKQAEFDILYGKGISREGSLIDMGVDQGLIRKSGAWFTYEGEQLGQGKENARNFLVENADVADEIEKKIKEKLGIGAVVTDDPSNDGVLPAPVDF
Description: Fluorescence Cell-Free Homogeneous Dose Retest to Identify Inhibitors of RecA-Intein Splicing Activity. [Related pubchem assays (depositor defined):AID2097, AID2223, AID489010, AID492950]. It counts as functional.

Data set [12] is described as follows: cytotoxicity in HPDE-C7 cells, cell-based, fluorescence, HTS (AID 430). It counts as functional. The settings on record: Homo sapiens.
Data set [13] is described as follows: cytotoxicity in KRAS-transformed pancreatic duct cells, primary screen, cell-based, fluorescence, HTS (AID 431).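 Note: cell line used: HPDE-C7K.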 It counts as functional. The settings on record: Homo sapiens.
A further data set relates to Vero. Description: Vero cell cytotoxicity, cytotoxicity control for flavivirus capping enzyme inhibitors (AID 588742). It counts as functional. The settings on record: Chlorocebus sabaeus.
In another data set the target is Cytochrome P450 2C19 (Homo sapiens, UniProt P33261). Description: Cytochrome panel assay with activity outcomes. Panel member name: p450-cyp2c19 Compounds with AC50 equal or less than 10 uM are considered active. It counts as functional.
Cytochrome P450 2C19, sequence (P33261 whole entry): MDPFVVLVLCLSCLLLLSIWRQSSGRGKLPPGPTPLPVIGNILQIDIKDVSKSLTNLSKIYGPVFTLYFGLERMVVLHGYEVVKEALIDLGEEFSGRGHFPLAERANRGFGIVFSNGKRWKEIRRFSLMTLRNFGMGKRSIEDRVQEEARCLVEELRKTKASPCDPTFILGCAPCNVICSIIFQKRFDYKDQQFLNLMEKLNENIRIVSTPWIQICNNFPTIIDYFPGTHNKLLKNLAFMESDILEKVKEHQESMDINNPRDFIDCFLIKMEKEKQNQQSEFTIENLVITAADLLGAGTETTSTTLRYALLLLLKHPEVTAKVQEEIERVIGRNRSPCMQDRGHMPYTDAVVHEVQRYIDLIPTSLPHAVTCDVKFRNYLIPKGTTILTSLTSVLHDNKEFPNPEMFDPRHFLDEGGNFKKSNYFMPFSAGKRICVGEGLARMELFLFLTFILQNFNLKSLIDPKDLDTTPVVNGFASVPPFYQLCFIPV

The structures appear in SMILES notation. Calls of active or inactive are those of the source.

Luciferin 4-monooxygenase, sequence (P08659 whole entry): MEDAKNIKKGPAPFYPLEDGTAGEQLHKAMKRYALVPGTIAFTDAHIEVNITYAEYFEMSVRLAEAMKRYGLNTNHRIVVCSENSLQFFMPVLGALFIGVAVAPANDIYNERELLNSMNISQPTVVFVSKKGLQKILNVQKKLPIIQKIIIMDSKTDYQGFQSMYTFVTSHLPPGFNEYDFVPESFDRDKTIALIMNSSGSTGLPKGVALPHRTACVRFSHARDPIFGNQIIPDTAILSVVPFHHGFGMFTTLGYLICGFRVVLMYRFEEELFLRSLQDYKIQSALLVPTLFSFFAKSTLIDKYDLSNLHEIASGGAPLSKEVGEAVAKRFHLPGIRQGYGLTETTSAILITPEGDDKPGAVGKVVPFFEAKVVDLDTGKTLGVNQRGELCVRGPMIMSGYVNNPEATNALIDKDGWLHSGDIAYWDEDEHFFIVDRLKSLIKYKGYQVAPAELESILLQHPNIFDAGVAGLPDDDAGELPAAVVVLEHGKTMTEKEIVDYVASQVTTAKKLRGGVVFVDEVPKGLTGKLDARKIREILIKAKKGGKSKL

One may read the EC50 as the concentration giving half of the maximal effect. On to `O=C(Nc1ccc(N2CCCC2)c(Cl)c1)c1ccco1`, for which the values for the concentration for a half-maximal effect (EC50) (in data set [1]; in the data set on HT-1080) were < 0.2 µM (active) and > 50 µM (not active), respectively.

As a reminder, the IC50 is the concentration that gives 50% inhibition. Turning to `O=C(Nc1cccc(NC(=O)c2cccs2)c1)c1ccc(Br)cc1`, the IC50 in data set [2] was > 111 µM (not active); in data set [3] it was 6.65 µM (active).

With `COc1ccc(O)c(C(=O)CC(=O)c2ccccc2)c1`, the EC50 in data set [1] was 5.71 µM (active); with HT-1080 it was > 50 µM (not active).

Turning to `CCC(=O)Nc1ccc(C(=O)Nc2ccc3c(c2)C(=O)N(CC2CCCO2)C3=O)cc1` (stereo unspecified), the IC50 was > 111 µM (not active) in [2] and 6.54 µM (active) in data set [3].

In general, CC50 refers to the concentration at which the toxic effect on the cells reaches its halfway point. Take `O=[N+]([O-])c1cc(CN2CCCC2)c2cccnc2c1O`: the CC50 in data set [4] is > 40 µM (active). The IC50 was > 109 µM (not active) against Bcl-2-like protein 1 and 2.7 µM (active) in data set [5].

As to `COc1ccc(NC(=O)c2ccc(C(=O)Nc3ccc(OC)cc3OC)cc2)c(OC)c1`, the half-inhibitory concentration (IC50) in [2] is recorded as > 111 µM (not active); in data set [3], 19.2 µM (not active).

For `CCOc1ccc(-c2cnc3n2CCC3)cc1`, the cytotoxic concentration (CC50) in data set [6] was > 40 µM (active).

`CCCSc1nnc(NC(=O)Nc2ccccc2)s1`: the IC50 in data set [7] and in [9] was > 100 µM (inactive) throughout. The concentration for a half-maximal effect (EC50) in data set [8] and in [10] was > 300 µM (not active) throughout.

The term AC50 denotes the concentration at which the activity in the assay is half-maximal. As for `CCCc1n[nH]c2c1C(c1ccc(Br)s1)C(C#N)=C(N)O2` (stereo unspecified), the AC50 in data set [11] was 8.54 µM (active). For the same molecule, the EC50 is 7.21 µM (active) on Protein RecA, 5.48 µM (active) in [12] and 7 µM (active) in [13]. In addition, the CC50 in the data set with Vero was 39.9 µM (active).

Take `Cc1ccc(/C(O)=C/C2=NCC(C)NC2=O)cc1` (stereo unspecified): the EC50 in [1] is given as > 100 µM (not active); with HT-1080, > 50 µM (not active). Moreover, the AC50 result at Cytochrome P450 2C19 is “inconclusive”.

Values taken from ChEMBL document CHEMBL1201862, “PubChem BioAssay data set” (2004).
